Experimental data published in patent US20210290568A1, “INHALABLE FORMULATION OF A SOLUTION CONTAINING LEVALBUTEROL TARTRATE” (priority 2020, published 2021).

Experiment: Aerodynamic particle size distribution by Andersen Cascade Impactor (ACI)
Format: physicochemical
Details: flow rate 28.3 L/min, Samples I-V
Experimental: An Andersen Cascade Impactor (ACI) was used to determine the particle size distribution of Samples I-V. The test was conducted at a flow rate of 28.3 L/min. Deposition of the active substance on each ACI plate was determined by high performance liquid chromatography. The particle size was expressed in terms of mass median aerodynamic diameter (MMAD) and Geometric Standard Deviation (GSD).

GSD: 1.7
MMAD: 4.4 μm
SMILES: CC(C)(C)NC[C@H](O)c1ccc(O)c(CO)c1.O=C(O)C(O)C(O)C(=O)O [Levalbuterol Tartrate, 4-[(1R)-2-(tert-butylamino)-1-hydroxyethyl]-2-(hydroxymethyl)phenol; (2R,3R)-2,3-dihydroxybutanedioic acid]
